In patent EP1175509B1 (priority 1999, dated 2000):

What was measured:
Assay type in all cases: biochemical
Settings in all cases: pH 8
FBS-AChE, soluble = target: T1, FBS-AChE, soluble (Bos taurus, UniProt P23795)
T1 sequence (P23795 31-613): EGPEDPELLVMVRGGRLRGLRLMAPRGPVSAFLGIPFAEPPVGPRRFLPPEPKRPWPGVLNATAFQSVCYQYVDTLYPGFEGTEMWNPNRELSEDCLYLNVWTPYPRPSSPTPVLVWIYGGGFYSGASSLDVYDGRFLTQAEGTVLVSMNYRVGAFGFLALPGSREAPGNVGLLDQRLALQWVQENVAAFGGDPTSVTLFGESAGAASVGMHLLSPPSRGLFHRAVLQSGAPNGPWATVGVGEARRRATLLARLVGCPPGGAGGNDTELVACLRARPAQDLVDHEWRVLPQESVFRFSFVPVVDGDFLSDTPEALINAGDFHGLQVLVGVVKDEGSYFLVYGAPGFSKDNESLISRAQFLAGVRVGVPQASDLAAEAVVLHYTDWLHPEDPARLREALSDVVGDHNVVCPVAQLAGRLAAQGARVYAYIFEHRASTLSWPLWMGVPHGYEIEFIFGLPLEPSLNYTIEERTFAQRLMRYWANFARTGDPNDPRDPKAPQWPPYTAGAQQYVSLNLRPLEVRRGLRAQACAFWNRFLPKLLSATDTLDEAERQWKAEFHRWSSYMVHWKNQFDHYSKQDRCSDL

[1] = target: T2, FBS-AChE, immobilized (polyurethane coupled) (Bos taurus, UniProt P23795)
T2 sequence (P23795 31-613): T1 sequence (P23795 31-613)

[2] = target: Equine-BChE, immobilized (polyurethane coupled) (Equus caballus, UniProt P81908)
Sequence of Equine-BChE, immobilized (polyurethane coupled) (P81908 whole entry): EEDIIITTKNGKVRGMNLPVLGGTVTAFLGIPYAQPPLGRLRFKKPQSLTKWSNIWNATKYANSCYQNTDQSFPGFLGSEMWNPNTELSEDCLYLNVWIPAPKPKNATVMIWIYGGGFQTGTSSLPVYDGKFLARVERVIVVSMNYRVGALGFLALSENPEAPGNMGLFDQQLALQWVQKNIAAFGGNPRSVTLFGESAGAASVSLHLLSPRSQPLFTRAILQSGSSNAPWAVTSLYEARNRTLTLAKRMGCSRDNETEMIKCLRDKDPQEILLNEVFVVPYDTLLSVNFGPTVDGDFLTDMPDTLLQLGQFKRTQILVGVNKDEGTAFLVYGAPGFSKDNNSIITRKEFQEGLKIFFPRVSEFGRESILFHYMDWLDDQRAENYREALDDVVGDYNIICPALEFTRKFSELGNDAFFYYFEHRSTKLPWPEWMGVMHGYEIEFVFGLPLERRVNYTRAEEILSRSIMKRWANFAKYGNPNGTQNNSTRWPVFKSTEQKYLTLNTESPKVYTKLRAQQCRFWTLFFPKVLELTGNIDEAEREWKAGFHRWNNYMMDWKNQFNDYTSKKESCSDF

Equine-BChE, soluble = Equine-BChE, soluble (Equus caballus, UniProt P81908)
Sequence of Equine-BChE, soluble (P81908 whole entry): as above

| SMILES | Kcat (FBS-AChE, soluble) [s⁻¹] | Km (FBS-AChE, soluble) [µM] | Kss (FBS-AChE, soluble) [mM] | Kcat [1] [s⁻¹] | Km [1] [µM] | Kss [1] [mM] | Kcat [2] [s⁻¹] | Km [2] [µM] | Kss [2] [mM] | B (Equine-BChE, soluble) | Kcat (Equine-BChE, soluble) [s⁻¹] | Km (Equine-BChE, soluble) [µM] | Kss (Equine-BChE, soluble) [mM] |
| --- | --- | --- | --- | --- | --- | --- | --- | --- | --- | --- | --- | --- | --- |
| CC(=O)SCC[N+](C)(C)C.[I-] [acetylthiocholine, Acetylthiocholine iodide] | 4670 | 119 | 18 | 983 | 1090 | 22 | – | – | – | – | – | – | – |
| CCCC(=O)SCC[N+](C)(C)C.[I-] [butyrylthiocholine, S-butyrylthiocholine iodide] | – | – | – | – | – | – | 300 | 1200 | 16 | 1.8 | 517 | 127 | 1.5 |
